Test results from PubChem BioAssay (NCI).
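Cells were grown in 96-well plates and exposed to each compound for 48 hours at five concentrations; endpoints were interpolated linearly between bracketing concentrations, or set to the highest concentration if not reached. At the GI50, growth is halved. TGI denotes the concentration required for complete inhibition of growth.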

Assays:
Assay in all cases: inhibition of tumour cell growth, NCI panel, 48 h
HCC-2998 colon = system: HCC-2998 colon
MOLT-4 leukemia = system: MOLT-4 leukemia
HOP-62 NSCLC = system: HOP-62 NSCLC
KM12 colon = system: KM12 colon
CAKI-1 renal = system: CAKI-1 renal
MDA-MB-231 breast = system: MDA-MB-231 breast
SK-MEL-2 melanoma = system: SK-MEL-2 melanoma
786-0 renal = system: 786-0 renal

| SMILES | GI50 (HCC-2998 colon) | TGI (HCC-2998 colon) | GI50 (MOLT-4 leukemia) | TGI (MOLT-4 leukemia) | GI50 (HOP-62 NSCLC) | TGI (HOP-62 NSCLC) | GI50 (KM12 colon) | TGI (KM12 colon) | GI50 (CAKI-1 renal) | TGI (CAKI-1 renal) | GI50 (MDA-MB-231 breast) | TGI (MDA-MB-231 breast) | GI50 (SK-MEL-2 melanoma) | TGI (SK-MEL-2 melanoma) | GI50 (786-0 renal) | TGI (786-0 renal) |
| --- | --- | --- | --- | --- | --- | --- | --- | --- | --- | --- | --- | --- | --- | --- | --- | --- |
| CN1CCC(=C(c2ccc(Cl)cc2)c2ccccn2)CC1 | > 100 µM | > 100 µM | > 100 µM | > 100 µM | > 100 µM | > 100 µM | > 100 µM | > 100 µM | > 100 µM | > 100 µM | 34.5 µM | > 100 µM | > 100 µM | > 100 µM | > 100 µM | > 100 µM |
| CN(C)C/C=C/C(=O)Nc1ccc(C(=O)Nc2cccc(Nc3ncc(Cl)c(-c4c[nH]c5ccccc45)n3)c2)cc1 | 0.0154 µM | 0.203 µM | 0.032 µM | > 100 µM | 0.0697 µM | > 100 µM | 0.0747 µM | 0.232 µM | 0.0607 µM | 0.686 µM | 0.0332 µM | 0.33 µM | 0.021 µM | 0.0682 µM | 0.0441 µM | – |
| O=C(O)C1CC[N-]CC1.O=C(O)C1CC[N-]CC1.[NH2-].[NH2-].[Pt+4] | – | – | > 100 µM | > 100 µM | > 100 µM | > 100 µM | > 100 µM | > 100 µM | > 100 µM | > 100 µM | > 100 µM | > 100 µM | > 100 µM | > 100 µM | > 100 µM | > 100 µM |
| Cc1[nH]c(N)nc(=S)c1CCCNc1ccccc1 | – | – | – | 21.1 µM | – | > 100 µM | – | > 100 µM | – | > 100 µM | – | > 100 µM | – | > 100 µM | – | > 100 µM |
| Cc1cc2c(C(C)C)c(O)c(O)c(/C=N/O)c2c(O)c1-c1c(C)cc2c(C(C)C)c(O)c(O)c(/C=N/O)c2c1O | 2.29 µM | 6.88 µM | 2.23 µM | 7.64 µM | 1.95 µM | 11.4 µM | 2.36 µM | 8.52 µM | – | – | 3.5 µM | 20.2 µM | 3.47 µM | 13.8 µM | 3.22 µM | 13.3 µM |
| Cn1ccc(S(=O)(=O)N2CCC[C@H](Nc3nccc(-c4c(-c5cccc(O)c5)nc5occn45)n3)C2)n1 | 15 µM | 34.3 µM | 17.4 µM | 63.7 µM | 31 µM | > 100 µM | 18.3 µM | > 86.9 µM | 18 µM | 78.1 µM | 6.23 µM | > 66.6 µM | 0.444 µM | 10.7 µM | 20.1 µM | > 100 µM |
| C=CCc1cc(O)ccc1O | > 100 µM | > 100 µM | 5.87 µM | 68.9 µM | 29.8 µM | > 100 µM | 13.2 µM | 65.1 µM | 23.9 µM | > 100 µM | 14.1 µM | > 100 µM | 85.5 µM | > 100 µM | 22.8 µM | > 100 µM |
| Cc1ccc2c(-c3ccnc(Nc4cccc(C(F)(F)F)c4)n3)c(-c3ccccc3)nn2n1 | 5.99 µM | 16.1 µM | > 25 µM | > 25 µM | 14.4 µM | > 25 µM | 11.1 µM | > 18.3 µM | 2.83 µM | > 25 µM | 3.34 µM | 8.64 µM | 6.28 µM | 14.3 µM | 4.67 µM | > 15.1 µM |
| COc1cc2c3c(n(CCCNCCCCN)c(=O)c2cc1OC)-c1cc2c(cc1C3=O)OCO2 | – | – | – | > 19.6 µM | 0.836 µM | 32.5 µM | 4.58 µM | 21.7 µM | – | 15 µM | 2.86 µM | 9.13 µM | 4.86 µM | 16.4 µM | 2.27 µM | 20.5 µM |
| N#C/C(=C\c1ccc(O)c(O)c1)C(=O)NCc1cccc(C(F)(F)F)c1 | 10.3 µM | 22.2 µM | 5.65 µM | 41.2 µM | 13.4 µM | 42.2 µM | 4.04 µM | 19.6 µM | 2.05 µM | 7.39 µM | 5.82 µM | 29 µM | 0.115 µM | 2.98 µM | 19 µM | 45.5 µM |
| C/C=C(/C)C(=O)OC1C=C(CO)C(=O)C(OC(=O)C2(C)OC2C)C1C(C)C (centres undefined) | 1.74 µM | 3.22 µM | 1.96 µM | 6.5 µM | 1.96 µM | 4.3 µM | 1.83 µM | 3.67 µM | 1.81 µM | 3.2 µM | 1.72 µM | 3.79 µM | 1.85 µM | 3.59 µM | 1.79 µM | 3.24 µM |
| Oc1c(Cl)cc(Cl)c(Cl)c1Cc1c(O)c(Cl)cc(Cl)c1Cl | 0.584 µM | 12.9 µM | 1.31 µM | 36.1 µM | 1.37 µM | 12.1 µM | 0.953 µM | 11.5 µM | 0.525 µM | 7.36 µM | 1.35 µM | 5.53 µM | 0.497 µM | 3.48 µM | 1.96 µM | 11.8 µM |
| CN1C(=O)[C@@H](CC2CCCC2)N(C2CCCC2)c2nc(Nc3cc(Cl)c(O)c(Cl)c3)ncc21 | 29.8 µM | > 100 µM | 12.2 µM | 56 µM | 27.9 µM | > 100 µM | 37.5 µM | > 100 µM | 23.1 µM | > 100 µM | – | – | – | – | 15.2 µM | 47.2 µM |
| CCCCNC(=O)CC1=C(C)/C(=C/c2[nH]c(-c3ccc[nH]3)cc2OC)N=C1C | – | – | 1.93 µM | 9 µM | 2.5 µM | 9.76 µM | 1.8 µM | 10.6 µM | 2.56 µM | 9.3 µM | 1.48 µM | 8.04 µM | 1.72 µM | 3.87 µM | 2.04 µM | 4.64 µM |
| CC(=O)NC(CCc1ccc(Cl)c(Cl)c1)c1cccc(O)c(=O)c1 (centres undefined) | 1.47 µM | 13.9 µM | 0.74 µM | 14.4 µM | 0.393 µM | 12.2 µM | 0.825 µM | 17.8 µM | 0.195 µM | 11.9 µM | 0.709 µM | 15.5 µM | 2.8 µM | 17.1 µM | 0.591 µM | 12 µM |
| C=C(CC)C(=O)c1ccc(OCC(=O)O)c(Cl)c1Cl | – | 35.4 µM | – | > 62.2 µM | – | > 56 µM | – | 21.4 µM | – | 28.1 µM | – | 34.6 µM | – | 33.2 µM | – | 19.7 µM |
